# Experimental data taken from US20080194585A1, “Fungicidal Pyrazine Derivatives” (priority 2005, published 2008).
# Marks after values point to notes of the source that are not given here.
# Assays:
# Conditions in all cases: 100 = 100% disease control, 0 = no control
# [1] = system: Plasmopara viticola; experiment: Test D: grape downy mildew, spray after inoculation of grape seedlings; type: in vivo
# Excerpt: Upon removal, disease ratings were made. […] A dash (-) indicates no test results.
# [2] = system: Phytophthora infestans; experiment: whole plant or invertebrate; type: in vivo
# [3] = system: Septoria tritici; experiment: Test J: wheat leaf blotch, preventive spray on wheat seedlings; type: in vivo
# Excerpt: A dash (-) indicates no test results.
# [4] = system: fusarium graminearium; experiment: Test I: wheat head scab, preventive spray on wheat seedlings
# Description: (the causal agent of wheat head scab) and incubated in a saturated atmosphere at 20° C. for 72 h, and then moved to a growth chamber at 22° C. for 5 days, after which disease ratings were made.
# [5] = system: Puccinia recondita f. sp. tritici; experiment: Test K: wheat leaf rust, preventive spray on wheat seedlings
# [6] = system: Botrytis cinerea; experiment: Test E: tomato botrytis, preventive spray on tomato seedlings
# [7] = system: Septoria nodorum; experiment: Test H: wheat glum blotch, preventive spray on wheat seedlings
# Description: (the causal agent of wheat glum blotch) and incubated in a saturated atmosphere at 20° C. for 48 h, and then moved to a growth chamber at 22° C. for 5 days, after which disease ratings were made.
# [8] = system: Erysiphe graminis f. sp. tritici; experiment: Test L: wheat powdery mildew, preventive spray on wheat seedlings
# [9] = system: Pythium aphanidermatum; experiment: Test A: bluegrass pythium blight, preventive spray on bluegrass seedlings
# [10] = system: Rhizoctonia oryzae; experiment: Test G: turf brown patch, preventive spray on creeping bent grass seedlings
# Description: (the causal agent of turf brown patch) and incubated in a saturated atmosphere at 27° C. for 24 h, and then moved to a growth chamber at 27° C. for 5 days, after which disease ratings were made.
# [11] = system: Colletotrichum orbiculare; experiment: Test B: cucumber Colletotrichum anthracnose, preventive spray on cucumber seedlings
SMILES,Test D disease control rating ([1]; 40 ppm (marked *)),Test F disease control rating ([2]; 40 ppm (marked *)),Test J disease control rating ([3]; 40 ppm (marked *)),Test I disease control rating ([4]; 40 ppm (marked *)),Test K disease control rating ([5]; 40 ppm (marked *)),Test E disease control rating ([6]; 40 ppm (marked *)),Test H disease control rating ([7]; 40 ppm (marked *)),Test L disease control rating ([8]; 40 ppm (marked *)),Test A disease control rating ([9]; 40 ppm (marked *)),Test G disease control rating ([10]; 40 ppm (marked *)),Test B disease control rating ([11]; 40 ppm (marked *)),Test D disease control rating ([1]; 200 ppm),Test F disease control rating ([2]; 200 ppm),Test I disease control rating ([4]; 200 ppm),Test A disease control rating ([9]; 200 ppm),further results
O=c1c(-n2cccn2)nc(Cl)c(-c2c(F)cc(F)cc2F)n1-c1ccccc1F [compound 320],0* %,0* %,100* %,0* %,99* %,99* %,100* %,96* %,74* %,80* %,88* %,–,–,–,–,–
Cc1ccn(-c2nc(Cl)c(-c3c(F)cc(F)cc3F)n(-c3ccccc3)c2=O)n1 [compound 321],17* %,0* %,100* %,82* %,99* %,99* %,100* %,0* %,0* %,70* %,94* %,–,–,–,–,–
O=c1c(-n2cccn2)nc(Cl)c(-c2ccc(F)cc2Cl)n1-c1ccccc1 [compound 322],0* %,0* %,100* %,0* %,92* %,99* %,98* %,0* %,0* %,16* %,63* %,–,–,–,–,–
Cc1ccn(-c2nc(Cl)c(-c3ccc(F)cc3Cl)n(-c3ccccc3)c2=O)n1 [compound 323],0* %,0* %,100* %,0* %,96* %,99* %,97* %,0* %,0* %,16* %,78* %,–,–,–,–,–
CC(C)Cn1c(-c2c(F)cccc2F)c(Cl)nc(-n2cccc2C#N)c1=O [compound 325],0* %,0* %,7* %,0* %,–,0* %,–,0* %,0* %,0* %,0* %,–,–,–,–,Test K disease control rating ([5]; 200 ppm): 0%; Test H disease control rating ([7]; 200 ppm): 0%
Cc1cccc(-n2c(-c3c(F)cccc3F)c(Cl)nc(-n3cccn3)c2=O)c1 [compound 326],0* %,0* %,97* %,0* %,97* %,99* %,100* %,94* %,0* %,16* %,0* %,–,–,–,–,–
Cc1cccc(-n2c(-c3c(F)cccc3F)c(Cl)nc(-n3ccc(C)n3)c2=O)c1 [compound 327],0* %,0* %,97* %,0* %,95* %,99* %,98* %,78* %,93* %,0* %,37* %,–,–,–,–,–
Cc1ccccc1-n1c(-c2c(F)cccc2F)c(Cl)nc(-n2cccn2)c1=O [compound 328],0* %,0* %,100* %,31* %,98* %,99* %,100* %,88* %,0* %,87* %,0* %,–,–,–,–,–
Cc1ccn(-c2nc(Cl)c(-c3c(F)cccc3F)n(-c3ccccc3C)c2=O)n1 [compound 329],0* %,0* %,100* %,0* %,96* %,99* %,100* %,76* %,83* %,26* %,31* %,–,–,–,–,–
O=c1c(-n2cccn2)nc(Cl)c(-c2c(F)cc(F)cc2F)n1Cc1cccc(Br)c1 [compound 344],–,–,100* %,–,99* %,92* %,99* %,0* %,–,16* %,0* %,0%,0%,93%,0%,–
O=c1c(-n2cccn2)nc(Cl)c(-c2c(F)cc(F)cc2F)n1Cc1ccccc1Br [compound 345],–,–,100* %,–,100* %,98* %,99* %,88* %,–,31* %,88* %,0%,0%,91%,0%,–
O=c1c(-n2cccn2)nc(Cl)c(-c2c(F)cc(F)cc2F)n1Cc1ccc(C(F)(F)F)cc1 [compound 346],–,–,13* %,–,74* %,0* %,0* %,0* %,–,0* %,0* %,0%,0%,0%,0%,–
O=c1c(-n2cccn2)nc(Cl)c(-c2c(F)cc(F)cc2F)n1Cc1cccc(C(F)(F)F)c1 [compound 347],–,–,83* %,–,93* %,0* %,0* %,25* %,–,0* %,0* %,0%,0%,0%,0%,–
O=c1c(-n2cccn2)nc(Cl)c(-c2c(F)cc(F)cc2F)n1Cc1ccccc1C(F)(F)F [compound 348],–,–,99* %,–,97* %,90* %,64* %,44* %,–,16* %,0* %,0%,0%,0%,0%,–
CCC(C)Cn1c(-c2c(F)cccc2F)c(Cl)nc(C(=O)NCCO)c1=O (stereo not shown) [compound 349],–,–,25* %,–,96* %,0* %,0* %,0* %,–,0* %,0* %,0%,0%,0%,0%,–
CC(C)Cn1c(-c2c(F)cccc2F)c(Cl)nc(-c2cnccn2)c1=O [compound 350],–,–,–,–,–,–,–,–,–,–,–,0%,0%,80%,80%,Test J disease control rating ([3]; 200 ppm): 85%; Test K disease control rating ([5]; 200 ppm): 99%; Test E disease control rating ([6]; 200 ppm): 98%; Test H disease control rating ([7]; 200 ppm): 98%; Test L disease control rating ([8]; 200 ppm): 86%; Test G disease control rating ([10]; 200 ppm): 99%; Test B disease control rating ([11]; 200 ppm): 0%
O=c1c(-n2cccn2)nc(Cl)c(-c2c(F)cc(F)cc2F)n1-c1cccc(Br)c1 [compound 351],–,–,100* %,–,100* %,99* %,99* %,100* %,–,0* %,99* %,0%,0%,78%,0%,–
